From patent US20020150629A1, “Zinc-supplementary compositions for oral administration” (priority 2000, published 2002)

Assay: Bioavailability of zinc after administration to the duodenum of rats (plasma zinc AUC vs intravenous zinc acetate)
Conditions: for absorption promoting action (in words): 10 mg/kg
Method: Wistar rats of 8 weeks age were used in this experiment. The rats were fasted for 24 hours before administration of zinc acetate alone, a mixture of zinc acetate and a dipeptide listed in Table 1 at a molar ratio of dipeptide to zinc of 1:1, or a complex of zinc and L- or D-carnosine at a molar ratio of dipeptide to complex of 1:1. Each test composition was administered to the duodenum of ether-anesthetized rat as a solution or suspension in physiological saline. The dose of the composition was 10 mg/kg body weight as zinc in each case. Blood samples were collected before administration, and 1,3,5 and 7 hours after the administration. Plasma levels of zinc were determined using Zn Test Wako Kit (available from Wako Pure Chemical Industries, Ltd.). […] The bioavailability (BA) of zinc was calculated by the above comparison.
Using the same method as above, the bioavailability of zinc was determined at varying molar ratios of L-carnosine to zinc from zero to 30. The results are shown in FIG. 1 of the accompanying drawings.
The dose of a 1:1 molar mixture of L-carnosine and zinc acetate was varied from 3 mg/kg to 100 mg/kg in terms of zinc. Analogous to Part 1, AUCs and bioavalabilities were determined and compared with those of administration of zinc acetate alone. The results are shown in FIG. 2 of the accompanying drawing.

| Molecule | absorption promoting action (in words) (rat, in vivo) | BA (%) bioavailability of zinc (rat, in vivo) [%] | also measured |
| --- | --- | --- | --- |
| NCCC(=O)N[C@H](Cc1cnc[nH]1)C(=O)O [D-carnosine] | not | – | – |
| NCCC(=O)N[C@@H](Cc1cnc[nH]1)C(=O)O [L-carnosine, N-β-alanyl-L-histidine] | exhibited a similar absorption promoting action | – | bioavailability of zinc at varying molar ratios of L-carnosine to zinc (FIG. 1) (rat, in vivo): increased with increase in the molar ratio |
| CC(=O)[O-].CC(=O)[O-].[Zn+2] [Zinc acetate] | – | – | BA (%) bioavailability of zinc (fasted Wistar rats, administered to the duodenum, 10 mg/kg as zinc, dipeptide:zinc 1:1, AUC up to 7 hours vs i.v. zinc acetate 1 mg/kg): 8.6 ± 0.3% |
| D-carnosine zinc complex | – | 6.7 ± 0.8 | – |
| L-carnosine zinc complex | – | 11.7 ± 0.4 | – |
